According to PubChem BioAssay (NCI):
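96-well plates; 48 h exposure; 5 concentrations. Endpoints by linear interpolation between flanking doses. Not reached: highest tested concentration assigned. GI50 = concentration required for 50% inhibition of growth. TGI marks complete inhibition of growth.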

Experiments:
Assay in all cases: DTP human tumour cell line panel, 48 h
[1] = test system: UACC-62 melanoma
[2] = test system: U251 CNS
[3] = test system: PC-3 prostate
[4] = test system: SW-620 colon
[5] = test system: SN12C renal
[6] = test system: 786-0 renal
[7] = test system: SK-MEL-28 melanoma
[8] = test system: HCT-116 colon
[9] = test system: NCI-H460 lung
[10] = test system: UACC-257 melanoma
[11] = test system: NCI-H226 lung
[12] = test system: A549 NSCLC
[13] = test system: SF-295 CNS
[14] = test system: DU-145 prostate
[15] = test system: MDA-MB-435
[16] = test system: MDA-MB-231 breast
[17] = test system: NCI-H522 lung
[18] = test system: MCF7 breast
[19] = test system: IGROV1 ovarian
[20] = test system: HOP-92 NSCLC
[21] = test system: CCRF-CEM leukemia
[22] = test system: RXF 393 renal
[23] = test system: SK-OV-3 ovarian
[24] = test system: OVCAR-4 ovarian
[25] = test system: HS 578T breast
[26] = test system: TK-10 renal
[27] = test system: NCI/ADR-RES ovarian
[28] = test system: HCC-2998 colon
[29] = test system: OVCAR-3 ovarian
[30] = test system: SK-MEL-5 melanoma
[31] = test system: BT-549 breast
[32] = test system: HCT-15 colon
[33] = test system: T-47D breast
[34] = test system: RPMI-8226 leukemia
[35] = test system: COLO 205 colon
[36] = test system: MOLT-4 leukemia
[37] = test system: M14 melanoma
[38] = test system: SF-539 CNS
[39] = test system: A498 renal
[40] = test system: SNB-19 CNS
[41] = test system: K-562 leukemia
[42] = test system: OVCAR-5 ovarian
[43] = test system: HT29 colon
[44] = test system: UO-31 renal
[45] = test system: KM12 colon
[46] = test system: SK-MEL-2 melanoma
[47] = test system: MALME-3M melanoma
[48] = test system: LOX IMVI melanoma
[49] = test system: HL-60(TB) leukemia
[50] = test system: HOP-62 NSCLC
[51] = test system: SNB-75 CNS
[52] = test system: ACHN renal
[53] = test system: OVCAR-8 ovarian
[54] = test system: SF-268 CNS
[55] = test system: EKVX NSCLC
[56] = test system: SR leukemia
[57] = test system: CAKI-1 renal
[58] = test system: NCI-H23 lung
[59] = test system: MDA-N

In the case of `CN(Cc1ccc(F)cc1)c1ccc(CO)c(Cl)c1`, the GI50 [1] is reported as 0.323 µM, the TGI [1] is reported as 3.32 µM and the GI50 [2] is reported as 4.63 µM. The TGI [2] was 68.5 µM, the GI50 [3] was 20.3 µM and the TGI [3] was > 68.3 µM. For the same compound, the GI50 [4] was 5.14 µM, the TGI [4] was > 100 µM and the GI50 [5] was 23.2 µM. The TGI [5] was > 100 µM, the GI50 [6] was 10.5 µM and the TGI [6] was 30.4 µM. For the same compound, the GI50 [7] was 31.3 µM, the TGI [7] was > 100 µM and the GI50 [8] was 0.412 µM. It also gave a TGI [8] of 11.9 µM, a GI50 [9] of 1.41 µM and a TGI [9] of 13.9 µM. The GI50 [10] was 0.439 µM, the TGI [10] was 1.66 µM and the GI50 [11] was 0.126 µM. The TGI [11] was 0.278 µM, the GI50 [12] was 5.54 µM and the TGI [12] was > 60.1 µM. For the same compound, the GI50 [13] was 3.38 µM, the TGI [13] was > 62.3 µM and the GI50 [14] was 29.1 µM. For the same compound, the TGI [14] was > 100 µM, the GI50 [15] was 44.7 µM and the TGI [15] was > 100 µM. The GI50 [16] was 28.7 µM, the TGI [16] was > 100 µM and the GI50 [17] was 26.5 µM. It also gave a TGI [17] of 97.3 µM, a GI50 [18] of 1.23 µM and a TGI [18] of 21.5 µM. It also gave a GI50 [19] of 0.476 µM, a TGI [19] of 3.47 µM and a GI50 [20] of 3.87 µM. For the same compound, the TGI [20] was 24 µM, the GI50 [21] was 28.9 µM and the TGI [21] was > 100 µM. The GI50 [22] was 9.12 µM, the TGI [22] was > 59 µM and the GI50 [23] was 12.2 µM. For the same compound, the TGI [23] was 70.9 µM, the GI50 [24] was 2.22 µM and the TGI [24] was 19.7 µM. For the same compound, the GI50 [25] was 27.4 µM, the TGI [25] was 97.3 µM and the GI50 [26] was 0.203 µM. For the same compound, the TGI [26] was 0.825 µM, the GI50 [27] was 17.7 µM and the TGI [27] was > 64.3 µM. For the same compound, the GI50 [28] was 14.9 µM, the TGI [28] was 57 µM and the GI50 [29] was 3.55 µM. It also gave a TGI [29] of 15 µM, a GI50 [30] of 8.6 µM and a TGI [30] of 22.8 µM. The GI50 [31] was 12.3 µM, the TGI [31] was 39.9 µM and the GI50 [32] was 18.3 µM. The TGI [32] was > 100 µM, the GI50 [33] was 0.667 µM and the TGI [33] was 4.16 µM. The GI50 [34] was 12.4 µM, the TGI [34] was 60.6 µM and the GI50 [35] was 5.86 µM. It also gave a TGI [35] of 19.8 µM, a GI50 [36] of 21.8 µM and a TGI [36] of 69.3 µM. For the same compound, the GI50 [37] was 23.3 µM, the TGI [37] was > 76.9 µM and the GI50 [38] was 40.7 µM. For the same compound, the TGI [38] was > 100 µM, the GI50 [39] was 0.0507 µM and the TGI [39] was 0.174 µM. The GI50 [40] was 38.3 µM, the TGI [40] was > 100 µM and the GI50 [41] was 7.99 µM. For the same compound, the TGI [41] was > 100 µM, the GI50 [42] was 0.426 µM and the TGI [42] was 2.37 µM. The GI50 [43] was 8.38 µM, the TGI [43] was 67.1 µM and the GI50 [44] was 7.53 µM. For the same compound, the TGI [44] was > 65.1 µM, the GI50 [45] was 27.1 µM and the TGI [45] was > 76.9 µM. For the same compound, the GI50 [46] was 8.32 µM, the TGI [46] was 33.8 µM and the GI50 [47] was 24.5 µM. The TGI [47] was 71.9 µM, the GI50 [48] was 22.9 µM and the TGI [48] was > 68.9 µM. For the same compound, the GI50 [49] was 12.5 µM, the TGI [49] was 54 µM and the GI50 [50] was 5.13 µM. The TGI [50] was > 87.6 µM, the GI50 [51] was 18.4 µM and the TGI [51] was 89.5 µM. The GI50 [52] was 28.9 µM, the TGI [52] was > 100 µM and the GI50 [53] was 20.7 µM. For the same compound, the TGI [53] was > 100 µM, the GI50 [54] was 37.8 µM and the TGI [54] was > 100 µM. The GI50 [55] was 26.9 µM, the TGI [55] was > 100 µM and the GI50 [56] was 20.3 µM. For the same compound, the TGI [56] was 73.8 µM, the GI50 [57] was 2.49 µM and the TGI [57] was 45.8 µM. The GI50 [58] was 11.6 µM and the TGI [58] was > 72.7 µM.

For `C=C1C(=O)OC2C1CCC(C)C1(O)C=CC(=O)C21C` (configuration not stated), the TGI [1] was > 10 µM, the TGI [2] was > 10 µM and the TGI [3] was > 10 µM. For the same compound, the TGI [4] was > 10 µM, the TGI [5] was > 10 µM and the TGI [6] was > 10 µM. For the same compound, the TGI [7] was > 10 µM, the TGI [8] was > 10 µM and the TGI [9] was > 10 µM. For the same compound, the TGI [11] was > 10 µM, the TGI [12] was > 10 µM and the TGI [13] was > 10 µM. The TGI [15] was > 10 µM, the TGI [18] was > 10 µM and the TGI [19] was > 10 µM. The TGI [20] was > 10 µM, the TGI [21] was > 10 µM and the TGI [22] was > 10 µM. For the same compound, the TGI [23] was > 10 µM, the TGI [24] was > 10 µM and the TGI [25] was > 10 µM. For the same compound, the TGI [26] was > 10 µM, the TGI [27] was > 10 µM and the TGI [28] was > 10 µM. The TGI [29] was > 10 µM, the TGI [30] was > 10 µM and the TGI [32] was > 10 µM. For the same compound, the TGI [33] was > 10 µM, the TGI [34] was > 10 µM and the TGI [35] was > 10 µM. For the same compound, the TGI [36] was > 10 µM, the TGI [38] was > 10 µM and the TGI [39] was > 10 µM. For the same compound, the TGI [40] was > 10 µM, the TGI [41] was > 10 µM and the TGI [43] was > 10 µM. The TGI [44] was > 10 µM, the TGI [45] was > 10 µM and the TGI [46] was > 10 µM. The TGI [59] was > 10 µM, the TGI [47] was > 10 µM and the TGI [48] was > 10 µM. For the same compound, the TGI [49] was 9.5 µM, the TGI [50] was > 10 µM and the TGI [51] was > 10 µM. The TGI [52] was > 10 µM, the TGI [53] was > 10 µM and the TGI [54] was > 10 µM. For the same compound, the TGI [55] was > 10 µM, the TGI [56] was > 10 µM and the TGI [58] was > 10 µM.
